Results reported in ChEMBL document CHEMBL6087470, “Design of Small Non-Peptidic Ligands That Alter Heteromerization between Cannabinoid CB1 and Serotonin 5HT2A Receptors” (J Med Chem, 2025).
Activity calls are given as the source filed them. The rule behind the calls is not given here.

What was measured:
HEK293T = experiment: Disruption of human CB1R-nYFP-5HT2AR-cYFP heterodimerization co-transfected in HEK293T cells assessed as decrease in fluorescence signal at 4 uM incubated for 4 hrs by BiFC assay; assay type: cell-based
[1] = target: Cannabinoid receptor 1 (Homo sapiens) (UniProt P21554); experiment: Binding affinity to human CB1R-nYFP-CB1R-cYFP homodimerization co-transfected in HEK293T cells at 4 uM incubated for 4 hrs by BiFC assay; assay type: cell-based
Sequence of Cannabinoid receptor 1 (Homo sapiens) (P21554 whole entry): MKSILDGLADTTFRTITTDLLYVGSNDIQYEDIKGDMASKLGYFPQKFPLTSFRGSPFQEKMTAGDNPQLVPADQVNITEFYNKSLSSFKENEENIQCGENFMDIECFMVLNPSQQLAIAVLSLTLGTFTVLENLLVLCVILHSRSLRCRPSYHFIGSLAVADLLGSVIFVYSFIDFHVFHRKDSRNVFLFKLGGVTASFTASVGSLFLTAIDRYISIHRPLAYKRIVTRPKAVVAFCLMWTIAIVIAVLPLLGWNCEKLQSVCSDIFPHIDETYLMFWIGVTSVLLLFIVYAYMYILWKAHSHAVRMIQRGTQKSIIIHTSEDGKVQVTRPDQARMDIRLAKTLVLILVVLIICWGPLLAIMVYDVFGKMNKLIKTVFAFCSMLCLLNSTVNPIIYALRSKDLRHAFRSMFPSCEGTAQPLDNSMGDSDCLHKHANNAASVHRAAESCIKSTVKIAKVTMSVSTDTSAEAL

[2] = target: 5-hydroxytryptamine receptor 2A (Homo sapiens) (UniProt P28223); experiment: Binding affinity to human 5HT2AR-nYFP-5HT2AR-cYFP homodimerization co-transfected in HEK293T cells at 4 uM incubated for 4 hrs by BiFC assay; assay type: cell-based
Sequence of 5-hydroxytryptamine receptor 2A (Homo sapiens) (P28223 whole entry): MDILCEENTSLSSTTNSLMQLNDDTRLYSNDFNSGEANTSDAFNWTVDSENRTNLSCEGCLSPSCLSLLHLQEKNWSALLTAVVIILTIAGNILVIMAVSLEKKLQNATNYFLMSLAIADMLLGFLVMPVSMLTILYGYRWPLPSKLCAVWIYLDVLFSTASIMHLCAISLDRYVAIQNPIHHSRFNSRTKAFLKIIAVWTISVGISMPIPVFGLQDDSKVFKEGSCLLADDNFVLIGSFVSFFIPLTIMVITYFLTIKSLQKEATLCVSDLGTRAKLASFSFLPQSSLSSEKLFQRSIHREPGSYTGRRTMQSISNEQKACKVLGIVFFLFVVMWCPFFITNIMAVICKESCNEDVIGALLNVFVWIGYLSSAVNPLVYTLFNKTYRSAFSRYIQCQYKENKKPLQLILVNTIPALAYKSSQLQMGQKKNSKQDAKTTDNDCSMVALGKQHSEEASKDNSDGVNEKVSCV

HEK-293T [3] = experiment: Effect on G-protein coupling of 5HT2AR in forskolin-treated HEK293T cells transfected with CB1R-nYFP-5HT2AR-cYFP pretreated with WIN by cAMP based HTRF assay; assay type: functional, cell-based; conditions: Homo sapiens
HEK-293T [4] = experiment: Effect on G-protein coupling of 5HT2AR in forskolin-treated HEK293T cells transfected with CB1R-nYFP-5HT2AR-cYFP pretreated with DOI by cAMP based HTRF assay; assay type: functional, cell-based; conditions: Homo sapiens
HEK-293T [5] = experiment: Effect on ERK1/2 phosphorylation in forskolin-treated HEK293T cells transfected with CB1R-nYFP-5HT2AR-cYFP pretreated with DOI by cAMP based HTRF assay; assay type: functional, cell-based; conditions: Homo sapiens
HEK-293T [6] = experiment: Effect on G-protein coupling of 5HT2AR in forskolin-treated HEK293T cells transfected with CB1R-nYFP-5HT2AR-cYFP assessed as decrease in cAMP level pretreated with DOI/WIN by HTRF assay; assay type: functional, cell-based; conditions: Homo sapiens
HEK-293T [7] = experiment: Upregulation of ERK1/2 phosphorylation in forskolin-treated HEK293T cells transfected with CB1R-nYFP-5HT2AR-cYFP pretreated with DOI/WIN by cAMP based HTRF assay; assay type: functional, cell-based; conditions: Homo sapiens
HEK-293T [8] = experiment: Effect on G-protein coupling of 5HT2AR in forskolin-treated HEK293T cells transfected with CB1R-nYFP-5HT2AR-cYFP assessed as decrease in cAMP level pretreated with WIN/MDL by HTRF assay; assay type: functional, cell-based; conditions: Homo sapiens
HEK-293T [9] = experiment: Upregulation of ERK1/2 phosphorylation in forskolin-treated HEK293T cells transfected with CB1R-nYFP-5HT2AR-cYFP pretreated with WIN/MDL by cAMP based HTRF assay; assay type: functional, cell-based; conditions: Homo sapiens
HEK-293T [10] = experiment: Effect on G-protein coupling of 5HT2AR in forskolin-treated HEK293T cells transfected with CB1R-nYFP-5HT2AR-cYFP assessed as decrease in cAMP level pretreated with DOI/RIM by HTRF assay; assay type: functional, cell-based; conditions: Homo sapiens
HEK-293T [11] = experiment: Upregulation of ERK1/2 phosphorylation in forskolin-treated HEK293T cells transfected with CB1R-nYFP-5HT2AR-cYFP pretreated with DOI/RIM by cAMP based HTRF assay; assay type: functional, cell-based; conditions: Homo sapiens

Activity [1]	Activity [2]	Compound	Activity (HEK293T)	Activity (HEK-293T [3])	Activity (HEK-293T [4])	Activity (HEK-293T [5])	Activity (HEK-293T [6])	Activity (HEK-293T [7])	Activity (HEK-293T [8])	Activity (HEK-293T [9])	Activity (HEK-293T [10])	Activity (HEK-293T [11])
inactive	Active	CCC(CC)C(=O)N(Cc1ccccc1)Cc1ccccc1	Active	No effect	No effect	No effect	Active	Active	Active	Active	Active	Active
–	–	CC(C)COc1nc(-c2ccccc2)cc(-c2ccccc2)c1C#N	Active	–	–	–	–	–	–	–	–	–
inactive	Active	CC(C)CNC(=O)c1oc2ccccc2c1COc1ccccc1	Active	No effect	No effect	No effect	Active	Active	Active	Active	Active	Active
inactive	Active	CC(C)NC(=O)Cn1ccc2ccc(OCc3ccccc3)cc21	Active	No effect	No effect	No effect	Active	Active	Active	Active	Active	Active
Active	inactive	C=CCNC(=O)c1cn(-c2ccccc2)nc1-c1cccs1	–	–	–	–	–	–	–	–	–	–
–	–	CC(C)COCC(NC(=O)c1cccnc1)c1ccco1 (stereo not given)	Active	–	–	–	–	–	–	–	–	–
